Laboratory results taken from ChEMBL document CHEMBL1156251, “Structure--activity relationships of polymyxin antibiotics” (J Med Chem, 2010).
≈ marks a conversion by molar mass, not a printed value. Where a SMILES comes first, the peptide text is derived from it. Bridges are numbered along the chain shown (N, C = ends). [ ]: non-standard residue; d: D form. The star is where a group is joined. Heptanoyl(6-Me) = CC(C)CCCCC(=O)*; Octanoyl(6-Me) = CCC(C)CCCCC(=O)*; Dab = NCC[C@H](N)C(=O)O; Ava = NCCCCC(=O)O

Key:
Escherichia coli = assay: Antimicrobial activity against Escherichia coli; format: functional
Pseudomonas aeruginosa = assay: Antimicrobial activity against Pseudomonas aeruginosa; format: functional, organism-based
Salmonella enterica = assay: Antimicrobial activity against Salmonella enterica; format: functional

Molecule | MIC (Escherichia coli) | IC50 (Pseudomonas aeruginosa) | other results
CCC(C)CCCCC(=O)N[C@@H](CCN)C(=O)N[C@H](C(=O)N[C@@H](CO)C(=O)N[C@H]1CCNC(=O)[C@H]([C@@H](C)O)NC(=O)[C@H](CCN)NC(=O)[C@H](CCN)NC(=O)[C@H](CC(C)C)NC(=O)[C@@H](CC(C)C)NC(=O)[C@H](CCN)NC1=O)[C@@H](C)O (some centres not stated) | 0.8 µg/mL | – | –
CCC(C)CCCCC(=O)N[C@@H](CC=O)C(=O)N[C@H](C(=O)N[C@@H](CC=O)C(=O)N[C@H]1CCNC(=O)[C@H]([C@@H](C)O)NC(=O)[C@H](CC=O)NC(=O)[C@H](CC=O)NC(=O)[C@H](CC(C)C)NC(=O)[C@@H](Cc2ccccc2)NC(=O)[C@H](CC=O)NC1=O)[C@@H](C)O (some centres not stated) [Desamino Polymyxin B] | – | 70 µg/mL (≈ 58.4 µM) | –
CCCCCCCC(=O)N[C@@H](CCNS(=O)(=O)c1cccc2c(N(C)C)cccc12)C(=O)N[C@H](C(=O)N[C@@H](CCN)C(=O)N[C@H]1CCNC(=O)[C@H]([C@@H](C)O)NC(=O)[C@H](CCN)NC(=O)[C@H](CCN)NC(=O)[C@H](CC(C)C)NC(=O)[C@@H](Cc2ccccc2)NC(=O)[C@H](CCN)NC1=O)[C@@H](C)O | 1 µM | – | MIC (Salmonella enterica): 1 µM (≈ 1.42 µg/mL); MIC (Pseudomonas aeruginosa): 1 µM (≈ 1.42 µg/mL)
CC(=O)N[C@H](C(=O)N[C@@H](CCN)C(=O)N[C@H]1CCNC(=O)[C@H]([C@@H](C)O)NC(=O)[C@H](CCN)NC(=O)[C@H](CCN)NC(=O)[C@H](CC(C)C)NC(=O)[C@@H](CC(C)C)NC(=O)[C@H](CCN)NC1=O)[C@@H](C)O | 128 µM | – | MIC (Salmonella enterica): > 512 µM; MIC (Pseudomonas aeruginosa): 2 µM (≈ 1.94 µg/mL)
CCC(C)CCCCC(=O)N[C@@H](CCNc1ccc([N+](=O)[O-])cc1[N+](=O)[O-])C(=O)N[C@@H](C(=O)N[C@@H](CCNc1ccc([N+](=O)[O-])cc1[N+](=O)[O-])C(=O)N[C@H]1CCNC(=O)[C@@H]([C@@H](C)O)NC(=O)[C@H](CCNc2ccc([N+](=O)[O-])cc2[N+](=O)[O-])NC(=O)[C@H](CCNc2ccc([N+](=O)[O-])cc2[N+](=O)[O-])NC(=O)[C@H](CC(C)C)NC(=O)[C@@H](Cc2ccccc2)NC(=O)[C@H](CCN)NC1=O)[C@@H](C)O (some centres not stated) [2,4-DINITROPHENYL POLYMYXIN B] | – | 73 µg/mL (≈ 39.1 µM) | –
CCCCC(=O)N[C@@H](CCN)C(=O)N[C@@H](C(=O)N[C@@H](CCN)C(=O)N[C@H]1CCNC(=O)[C@@H]([C@@H](C)O)NC(=O)[C@H](CCN)NC(=O)[C@H](CCN)NC(=O)[C@H](CC(C)C)NC(=O)[C@@H](Cc2ccccc2)NC(=O)[C@H](CCN)NC1=O)[C@@H](C)O | 11 µg/mL | – | –
CC(C)C[C@@H]1NC(=O)[C@@H](Cc2ccccc2)NC(=O)[C@H](CCN)NC(=O)[C@@H](NC(=O)[C@H](CCN)NC(=O)[C@@H](NC(=O)[C@H](CCN)NC(=O)CCCc2cc3ccc4cccc5ccc(c2)c3c45)[C@@H](C)O)CCNC(=O)[C@H]([C@@H](C)O)NC(=O)[C@H](CCN)NC(=O)[C@H](CCN)NC1=O | 2 µM | – | MIC (Salmonella enterica): 2 µM (≈ 2.67 µg/mL); MIC (Pseudomonas aeruginosa): 2 µM (≈ 2.67 µg/mL)
CC(C)C[C@@H]1NC(=O)[C@@H](CC(C)C)NC(=O)[C@H](CCN)NC(=O)[C@@H](NC(=O)[C@H](CCN)NC(=O)[C@@H](NC(=O)[C@H](CCN)NC(=O)CC23CC4CC(CC(C4)C2)C3)[C@@H](C)O)CCNC(=O)[C@H]([C@@H](C)O)NC(=O)[C@H](CCN)NC(=O)[C@H](CCN)NC1=O | 2 µM | – | MIC (Salmonella enterica): 1 µM (≈ 1.21 µg/mL); MIC (Pseudomonas aeruginosa): 1 µM (≈ 1.21 µg/mL)
CCCC1CCC(C(=O)N[C@@H](CCN)C(=O)N[C@H](C(=O)N[C@@H](CCN)C(=O)N[C@H]2CCNC(=O)[C@H]([C@@H](C)O)NC(=O)[C@H](CCN)NC(=O)[C@H](CCN)NC(=O)[C@H](CC(C)C)NC(=O)[C@@H](Cc3ccccc3)NC(=O)[C@H](CCN)NC2=O)[C@@H](C)O)CC1 (some centres not stated) | 4 µM | – | MIC (Salmonella enterica): 4 µM (≈ 4.86 µg/mL); MIC (Pseudomonas aeruginosa): 2 µM (≈ 2.43 µg/mL)
CCC(C)CCCCC(=O)N[C@@H](CCN)C(=O)N[C@H](C(=O)N[C@@H](CCN)C(=O)N[C@H]1CCNC(=O)[C@H]([C@@H](C)O)NC(=O)[C@H](CCN)NC(=O)[C@H](CCN)NC(=O)CCCCNC(=O)[C@H](CCN)NC1=O)[C@@H](C)O (some centres not stated) ({Octanoyl(6-Me)}-[Dab]T[Dab][Dab][Dab][Ava][Dab][Dab]T; lactam 4-C) | 500 µg/mL | – | –
CCCC(=O)N[C@@H](CCN)C(=O)N[C@@H](C(=O)N[C@@H](CCN)C(=O)N[C@H]1CCNC(=O)[C@@H]([C@@H](C)O)NC(=O)[C@H](CCN)NC(=O)[C@H](CCN)NC(=O)[C@H](CC(C)C)NC(=O)[C@@H](Cc2ccccc2)NC(=O)[C@H](CCN)NC1=O)[C@@H](C)O [BUTANOYL FATTY ACYL POLYMYXIN B] | 23 µg/mL | – | –
CCCCCC(=O)N[C@@H](CCN)C(=O)N[C@@H](C(=O)N[C@@H](CCN)C(=O)N[C@H]1CCNC(=O)[C@@H]([C@@H](C)O)NC(=O)[C@H](CCN)NC(=O)[C@H](CCN)NC(=O)[C@H](CC(C)C)NC(=O)[C@@H](Cc2ccccc2)NC(=O)[C@H](CCN)NC1=O)[C@@H](C)O [HEXANOYL FATTY ACYL POLYMYXIN B] | 0.7 µg/mL | – | –
CCC(C)CCCCC(=O)N[C@@H](CCNC=O)C(=O)N[C@H](C(=O)N[C@@H](CCNC=O)C(=O)N[C@H]1CCNC(=O)[C@H]([C@@H](C)O)NC(=O)[C@H](CCNC=O)NC(=O)[C@H](CCNC=O)NC(=O)[C@H](CC(C)C)NC(=O)[C@@H](Cc2ccccc2)NC(=O)[C@H](CCNC=O)NC1=O)[C@@H](C)O (some centres not stated) | – | 60 µg/mL (≈ 44.7 µM) | –
CCC(C)CCCCC(=O)N[C@@H](CCNc1cc(N)c([N+](=O)[O-])cc1[N+](=O)[O-])C(=O)N[C@@H](C(=O)N[C@@H](CCNc1cc(N)c([N+](=O)[O-])cc1[N+](=O)[O-])C(=O)N[C@H]1CCNC(=O)[C@@H]([C@@H](C)O)NC(=O)[C@H](CCNc2cc(N)c([N+](=O)[O-])cc2[N+](=O)[O-])NC(=O)[C@H](CCNc2cc(N)c([N+](=O)[O-])cc2[N+](=O)[O-])NC(=O)[C@H](CC(C)C)NC(=O)[C@@H](Cc2ccccc2)NC(=O)[C@H](CCN)NC1=O)[C@@H](C)O (some centres not stated) [TETRA 5-AMINO-2,4-DINITROPHENYL POLYMYXIN B] | – | 68 µg/mL (≈ 35.3 µM) | –
CCC(C)CCCCC(=O)N[C@@H](CCNCc1c(COP(=O)(O)O)cnc(C)c1O)C(=O)N[C@@H](C(=O)N[C@@H](CCNCc1c(COP(=O)(O)O)cnc(C)c1O)C(=O)N[C@H]1CCNC(=O)[C@@H]([C@@H](C)O)NC(=O)[C@H](CCNCc2c(COP(=O)(O)O)cnc(C)c2O)NC(=O)[C@H](CCNCc2c(COP(=O)(O)O)cnc(C)c2O)NC(=O)[C@H](CC(C)C)NC(=O)[C@@H](Cc2ccccc2)NC(=O)[C@H](CCN)NC1=O)[C@@H](C)O (some centres not stated) [PYRIDOXAL POLYMYXIN B] | – | 10.7 µg/mL (≈ 5.03 µM) | –
CCC(C)CCCCC(=O)N[C@@H](CCNC=O)C(=O)N[C@H](C(=O)N[C@@H](CCNC=O)C(=O)N[C@H]1CCNC(=O)[C@H]([C@@H](C)O)NC(=O)[C@H](CCN)NC(=O)[C@H](CCNC=O)NC(=O)[C@H](CC(C)C)NC(=O)[C@@H](Cc2ccccc2)NC(=O)[C@H](CCN)NC1=O)[C@@H](C)O (some centres not stated) | – | 6.1 µg/mL (≈ 4.74 µM) | –
CCC(C)CCCCC(=O)N[C@@H](CCNC=O)C(=O)N[C@H](C(=O)N[C@@H](CCNC=O)C(=O)N[C@H]1CCNC(=O)[C@H]([C@@H](C)O)NC(=O)[C@H](CCNC=O)NC(=O)[C@H](CCNC=O)NC(=O)[C@H](CC(C)C)NC(=O)[C@@H](Cc2ccccc2)NC(=O)[C@H](CCN)NC1=O)[C@@H](C)O (some centres not stated) | – | 42 µg/mL (≈ 31.9 µM) | –
CCC(C)CCCCC(=O)N[C@@H](CCNC=O)C(=O)N[C@H](C(=O)N[C@@H](CCN)C(=O)N[C@H]1CCNC(=O)[C@H]([C@@H](C)O)NC(=O)[C@H](CCN)NC(=O)[C@H](CCN)NC(=O)[C@H](CC(C)C)NC(=O)[C@@H](Cc2ccccc2)NC(=O)[C@H](CCN)NC1=O)[C@@H](C)O (some centres not stated) | – | 7.6 µg/mL (≈ 6.17 µM) | –
CCC(C)CCCCC(=O)N[C@@H](CCNC(=O)n1ccc2ccccc21)C(=O)N[C@@H](C(=O)N[C@@H](CCNC(=O)n1ccc2ccccc21)C(=O)N[C@H]1CCNC(=O)[C@@H]([C@@H](C)O)NC(=O)[C@H](CCNC(=O)n2ccc3ccccc32)NC(=O)[C@H](CCNC(=O)n2ccc3ccccc32)NC(=O)[C@H](CC(C)C)NC(=O)[C@@H](Cc2ccccc2)NC(=O)[C@H](CCN)NC1=O)[C@@H](C)O (some centres not stated) [TETRA INDOLE ALDEHYDE POLYMYXIN B] | – | 10.2 µg/mL (≈ 5.74 µM) | –
CCC(C)CCCCC(=O)N[C@@H](CCCCN)C(=O)N[C@H](C(=O)N[C@@H](CCCCN)C(=O)N[C@H]1CCNC(=O)[C@H]([C@@H](C)O)NC(=O)[C@H](CCCCN)NC(=O)[C@H](CCCCN)NC(=O)[C@H](CC(C)C)NC(=O)[C@@H](Cc2ccccc2)NC(=O)[C@H](CCCCN)NC1=O)[C@@H](C)O (some centres not stated) | 0.2 µg/mL | – | –
CCC(C)CCCCCOC(=O)[C@H](CCCCN)NC(=O)C(NC(=O)[C@H](CCCCN)NC(=O)[C@H](CCCCN)NC(=O)[C@@H](NC(=O)[C@H](CCCCN)NC(=O)[C@@H](CCCCN)NC(=O)[C@H](CC(C)C)NC(=O)[C@@H](CCCCN)NC(=O)[C@@H](N)CC(C)C)[C@@H](C)O)[C@@H](C)O (single isomer, unassigned) | 100 µg/mL | – | –
CCC(C)CCCCC(=O)N[C@@H](CCNC(N)=O)C(=O)N[C@H](C(=O)N[C@@H](CCNC(N)=O)C(=O)N[C@H]1CCNC(=O)[C@H]([C@@H](C)O)NC(=O)[C@H](CCNC(N)=O)NC(=O)[C@H](CCNC(N)=O)NC(=O)[C@H](CC(C)C)NC(=O)[C@@H](Cc2ccccc2)NC(=O)[C@H](CCN)NC1=O)[C@@H](C)O (some centres not stated) | – | 80 µg/mL (≈ 58.2 µM) | –
CCC(C)CCCCC(=O)N[C@@H](CCN)C(=O)N[C@H](C(=O)N[C@@H](CCN)C(=O)N[C@H]1CCNC(=O)[C@H]([C@@H](C)O)NC(=O)[C@H](CCN)NC(=O)[C@H](CCN)NC(=O)[C@H]([C@@H](C)CC)NC(=O)[C@@H](CC(C)C)NC(=O)[C@H](CCN)NC1=O)[C@@H](C)O (some centres not stated) | 0.4 µg/mL | – | –
COLISTIN | 0.8 µg/mL | – | –
CCC(C)CCCCCOC(=O)[C@H](CCCCN)NC(=O)C(NC(=O)[C@H](CCCCN)NC(=O)[C@H](CCCCN)NC(=O)[C@@H](NC(=O)[C@H](CCCCN)NC(=O)[C@@H](CCCCN)NC(=O)[C@@H](N)CC(C)C)[C@@H](C)O)[C@@H](C)O (single isomer, unassigned) | 50 µg/mL | – | –
CC(C)CCCCC(=O)N[C@@H](CCN)C(=O)N[C@H](C(=O)N[C@@H](CCN)C(=O)N[C@H]1CCNC(=O)[C@H]([C@@H](C)O)NC(=O)[C@H](CCN)NC(=O)[C@H](CCN)NC(=O)[C@H](CC(C)C)NC(=O)[C@@H](CC(C)C)NC(=O)[C@H](CCN)NC1=O)[C@@H](C)O [COLISTIN B] ({Heptanoyl(6-Me)}-[Dab]T[Dab][Dab][Dab][dL]L[Dab][Dab]T; lactam 4-C) | 1.6 µg/mL | – | –
CCC(C)CCCCC(=O)N[C@@H](CCNC=O)C(=O)N[C@H](C(=O)N[C@@H](CCNC=O)C(=O)N[C@H]1CCNC(=O)[C@H]([C@@H](C)O)NC(=O)[C@H](CCN)NC(=O)[C@H](CCN)NC(=O)[C@H](CC(C)C)NC(=O)[C@@H](Cc2ccccc2)NC(=O)[C@H](CCN)NC1=O)[C@@H](C)O (some centres not stated) | – | 4.2 µg/mL (≈ 3.33 µM) | –
